Entries after “also recorded” stand apart in the source; their conditions may differ.
What was measured:
[1] = system: nuclear export of GFP-HDAC5 in NRVMs; assay: Quantitative HDAC5 nuclear export assay in NRVMs (Cellomics High Content Imaging System); assay type: cell-based, rat; details: 2 hrs
[2] = system: association of HDAC5 and 14-3-3; assay: Immunoprecipitation/immunoblotting of HDAC5 and 14-3-3 in NRVMs; assay type: cell-based, rat; details: inhibitor 10 μM, 1 hr before PE (20 μM) or ET-1 (50 nM) for 1 hr
HDAC5-bound PKD = molecular target: T1, HDAC5-bound PKD (Rattus norvegicus, UniProt Q9WTQ1); assay type: biochemical; details: 10 μM inhibitor in kinase reaction mixture (post)
T1 construct: Association of endogenous PKD with HDAC5 in cardiomyocytes; endogenous in cells; host or cells: neonatal rat ventricular myocytes; the kinase co-precipitated with adenoviral FLAG-HDAC5
T1 sequence (Q9WTQ1 1-918): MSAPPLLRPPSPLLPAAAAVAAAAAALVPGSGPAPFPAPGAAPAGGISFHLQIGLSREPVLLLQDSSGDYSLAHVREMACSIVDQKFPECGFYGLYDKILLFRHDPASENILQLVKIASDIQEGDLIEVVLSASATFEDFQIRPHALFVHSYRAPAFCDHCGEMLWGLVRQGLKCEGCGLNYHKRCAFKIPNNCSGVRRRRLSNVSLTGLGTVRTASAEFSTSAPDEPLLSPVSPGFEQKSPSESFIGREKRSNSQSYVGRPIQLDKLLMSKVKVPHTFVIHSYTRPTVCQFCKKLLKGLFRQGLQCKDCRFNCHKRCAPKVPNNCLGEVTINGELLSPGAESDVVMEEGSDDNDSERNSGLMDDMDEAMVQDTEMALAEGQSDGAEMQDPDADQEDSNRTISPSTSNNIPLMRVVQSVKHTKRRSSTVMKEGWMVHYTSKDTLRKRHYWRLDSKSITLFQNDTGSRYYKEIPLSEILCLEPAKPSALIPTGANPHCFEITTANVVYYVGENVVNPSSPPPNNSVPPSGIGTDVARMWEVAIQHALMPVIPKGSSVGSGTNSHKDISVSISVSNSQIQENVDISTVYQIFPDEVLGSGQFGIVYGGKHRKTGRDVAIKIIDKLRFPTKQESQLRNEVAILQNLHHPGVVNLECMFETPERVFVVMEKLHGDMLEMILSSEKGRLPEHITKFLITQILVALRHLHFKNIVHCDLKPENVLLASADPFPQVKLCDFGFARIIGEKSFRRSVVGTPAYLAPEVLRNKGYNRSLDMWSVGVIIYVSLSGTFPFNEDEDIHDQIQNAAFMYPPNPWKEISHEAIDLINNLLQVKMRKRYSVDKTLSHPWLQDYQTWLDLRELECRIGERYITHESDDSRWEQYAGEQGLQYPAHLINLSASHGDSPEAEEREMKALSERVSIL

PKD = molecular target: T2, PKD (Homo sapiens, UniProt Q15139); details: literature (Van Lint 2002; Gschwendt 1996; Haworth); cited from earlier work
T2 sequence (Q15139 1-912): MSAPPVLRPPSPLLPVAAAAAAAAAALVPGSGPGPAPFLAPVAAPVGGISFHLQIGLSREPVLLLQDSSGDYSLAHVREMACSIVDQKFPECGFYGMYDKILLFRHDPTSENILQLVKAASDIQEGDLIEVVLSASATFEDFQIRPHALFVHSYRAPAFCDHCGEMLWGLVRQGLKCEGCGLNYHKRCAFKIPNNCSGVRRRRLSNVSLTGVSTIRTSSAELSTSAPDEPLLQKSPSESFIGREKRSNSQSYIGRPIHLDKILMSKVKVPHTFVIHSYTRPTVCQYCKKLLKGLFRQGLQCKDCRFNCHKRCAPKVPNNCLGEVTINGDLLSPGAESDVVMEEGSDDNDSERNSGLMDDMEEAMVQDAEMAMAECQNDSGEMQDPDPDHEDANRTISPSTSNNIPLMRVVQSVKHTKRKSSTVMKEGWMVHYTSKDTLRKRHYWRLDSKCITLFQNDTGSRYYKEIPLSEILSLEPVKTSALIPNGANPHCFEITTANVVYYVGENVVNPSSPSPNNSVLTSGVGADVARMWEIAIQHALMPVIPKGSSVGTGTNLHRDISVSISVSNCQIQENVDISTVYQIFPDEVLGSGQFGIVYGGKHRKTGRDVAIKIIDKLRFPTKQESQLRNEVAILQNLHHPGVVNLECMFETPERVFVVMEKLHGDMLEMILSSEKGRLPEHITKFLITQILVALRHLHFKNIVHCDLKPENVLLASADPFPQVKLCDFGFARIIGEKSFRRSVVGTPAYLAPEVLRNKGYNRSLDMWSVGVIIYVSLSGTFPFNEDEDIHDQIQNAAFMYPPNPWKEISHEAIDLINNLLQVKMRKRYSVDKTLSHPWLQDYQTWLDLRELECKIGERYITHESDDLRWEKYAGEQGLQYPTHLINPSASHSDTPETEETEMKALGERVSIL

NRVMs = assay: ANF immunostaining of cardiomyocytes (hypertrophy marker); assay type: cell-based, rat; details: PE 20 μM or PMA 100 nM, 24 hrs
Experimental: FIGS. 3A-C—Inhibition of PKC-mediated cardiac hypertrophy by signalresistant HDAC5. NRVMs were cultured on 6-well dishes and infected with adenoviruses (MOI=10) encoding a LacZ control (Ad-LacZ) or FLAG-tagged HDAC5 harboring alanines in place of serines 259 and 498 (Ad-HDAC5 S/A), which are required for 14-3-3-mediated nuclear export. Cells were treated with PE (20 μM) or PMA (100 nM) for 24 hrs prior to analysis. FIG. 3A. Cells were fixed and sarcomeres visualized by indirect immunofluorescence with primary antibody specific for α-actinin and fluorescein-conjugated secondary antibody. FIG. 3B. ANF protein was detected by indirect immunofluorescence with anti-ANF primary antibody. FIG. 3C. Total RNA was harvested from cells and subjected to dot blot analysis with radiolabeled oligonucleotides specific for the indicated transcripts. RNA levels were quantified using a phosphorimager and are depicted as -fold change relative to amounts in unstimulated cells infected with Ad-LacZ. Values were normalized to GAPDH controls.
Cell culture and transfection assays. COS cells were maintained in DMEM with FBS (10%), L-glutamine (2 mM), and penicillin-streptomycin. Transfection of COS cells was performed with Fugene 6 (Roche Molecular Biochemicals) according to manufacturer's instructions. […]

endogenous PKD = assay: Co-immunoprecipitation of endogenous PKD with HDAC5 in NRVMs (total PKD and p-916 immunoblot); assay type: cell-based, rat; details: PE 20 μM 1 hr, absence or presence of Bis I 10 μM
ras transformed cells = details: Taunton et al., 1996; cited from earlier work
[3] = Takahashi et al., 1996; cited from earlier work

Cn1c2ccccc2c2c3c(c4c5ccccc5n(CCC#N)c4c21)CNC3=O [Gö6976]
block of ET-1-induced nuclear export of HDAC5 ([1]; NRVMs, ET-1 50 nM, inhibitor pre-treatment 30 min): efficiently blocked nuclear export of HDAC5
block of FBS-induced nuclear export of HDAC5 ([1]; NRVMs, FBS 10%, inhibitor pre-treatment 30 min): efficiently blocked nuclear export of HDAC5
block of PE-induced nuclear export of HDAC5 ([1]; NRVMs, PE 20 μM, inhibitor pre-treatment 30 min, KN93, wortmannin, staurosporine 1 mM, U1026, HA1077, Y-27632, DAG Kinase inhibitor II, SB216763, Bis I 10 mM, rapamycin 30 ng/ml, Gö6983 10 μM): efficiently blocked nuclear export of HDAC5
block of association of HDAC5 and 14-3-3 [2]: blocked association of HDAC5 and 14-3-3 in response to both PE and ET-1
block of HDAC5 phosphorylation, inhibitor added directly to kinase reaction (HDAC5-bound PKD): blocked phosphorylation of HDAC5; also recorded: blocked phosphoryl transfer to HDAC5
sensitivity of PKD to the inhibitor (PKD): sensitive to Gö6976

CNC[C@H](O)c1cccc(O)c1 [PE, phenylephrine]
agonist-triggered nuclear export of HDAC5 in cardiomyocytes ([1]; NRVMs infected with Ad-GFP-HDAC5, PE 0.1 to 20 μM, ET-1 50 nM, FBS 10%): triggered nuclear export of HDAC5 in a concentration-dependent manner; also recorded: triggered dose-dependent nuclear export of HDAC5
ANF protein expression (NRVMs): prominent perinuclear ANF protein expression
activation of HDAC5-associated PKD (endogenous PKD): became activated in a PKC-dependent manner

CC(/C=C/C(=O)NO)=C\[C@@H](C)C(=O)c1ccc(N(C)C)cc1 [Trichostatin A]
effect on acetylation and morphology of ras transformed cells (ras transformed cells): induce hyperacetylation and cause reversion of ras transformed cells to normal morphology
immunosuppression in a mouse model [3]: induces immunsuppression in a mouse model

— patent US20050112128A1, “Inhibition of protein kinase c-mu (PKD) as a treatment for cardiac hypertrophy and heart failure” (Myogen, Inc. and Board of Regents, The University of Texas …, priority 2003, published 2005)
